The assay deals with apomorphine-induced dopaminergic neurotransmission. In words: BOLD fMRI of neuronal/glial activity in conscious rats pre-treated with an antipsychotic and challenged with apomorphine. The assay is classed as in vivo, rat. The following applies: for neuronal/glial activity in the anterior thalamic nuclei / neuronal/glial activity in the pituitary gland: antipsychotic pre-treatment i.p. (chlorpromazine, clozapine, olanzapine 5 mg/kg; haloperidol 1 mg/kg). The source says:
To image the brain activity of live rats (Charles River Laboratories, Wilmington, Mass.), the rats were anesthetized with 2-3% isoflurane (Abbott Laboratories, North Chicago, Ill.). Nine (9) rats were used for each experimental condition. A topical anesthetic of 10% lidocaine gel was applied to the skin and soft tissue around the ear canals and over the bridge of the nose. A plastic semi-circular headpiece with blunted ear supports that fit into the ear canals was positioned over the ears. The head was placed into a cylindrical head holder with the rat's canines secured over a bite bar and ears positioned inside the head holder with adjustable screws fitted into lateral sleeves. An adjustable, receive-only surface coil built into the head holder was pressed firmly on the head and locked into place. The body of the rat was placed into a body restrainer. The body restrainer “floats” down the center of the chassis connecting at the front and rear end-plates and buffered by rubber gaskets. The head piece locks into a mounting post on the front of the chassis. This design isolates all of the body movements from the head restrainer and minimizes motion artifact. Once the rat was positioned in the body holder, a transmit-only volume coil was slid over the head restrainer and locked into position.
When the rats were fully conscious, the restraining unit was placed into a black opaque tube mock scanner with a tape-recording of an MRI pulse sequence. This acclimation protocol lasted for 60 minutes in order to simulate the bore of the magnet and the imaging protocol. This procedure was repeated every other day for four days.
Experiments were conducted in a Bruker Biospec 4.7-T/40-cm horizontal magnet (Oxford Instrument, Oxford, U.K.) equipped with a Biospec Bruker console (Bruker, Billerica, Mass., U.S.A.) and a 20 G/cm magnetic field gradient insert (internal diameter=12 cm) capable of a 120 μs rise time (Bruker). Radiofrequency (RF) signals were sent and received with the dual coil electronics built into the animal restrainer (Ludwig et al., 2004, J. Neurosci. Methods 132(2):125-35). The volume coil for transmitting RF signal features an 8-element microstrip line configuration in conjunction with an outer copper shield. The arch-shaped geometry of the receiving surface coil provides excellent coverage and high signal-to-noise. To prevent mutual coil interference, the volume and surface coils were actively tuned and detuned.
Functional images were acquired using a multi-slice fast spin echo sequence. A single data acquisition included twelve (12), 1.2 mm slices collected in 6 seconds (field of view (FOV) 3.0 cm; data matrix 64×64; repetition time (TR) 1.43 sec, effective echo time (Eff TE) 53.3 msec, echo time (TE) 7 msec; rapid acquisition with relaxation enhancement (RARE) factor 16, number of excitations (NEX) 1). This sequence was repeated 100 times in a 10 minute imaging session, consisting of 5 minutes of baseline data followed by 5 minutes of stimulation data. At the beginning of each imaging session, a high resolution anatomical data set was collected using a RARE pulse sequence (12 slice; 1.2 mm; FOV 3.0 cm; 256×256; TR 2.1 sec; TE 12.4 msec; NEX 6; 7 minute acquisition time).
For each subject, rigid body motion in x-, y- and z-direction was computed with Stimulate software (Strupp, 1996, NeuroImage 3:S607) using center of intensity method. […] A conservative criteria of 120 μm standard deviation of motion in any direction was set as acceptance criteria.

The mark [1] stands for this setting: apomorphine 20 μg/10 μl ICV, BOLD fMRI, conscious rat.
[2] abbreviates: then apomorphine 20 μg/10 μl ICV, BOLD fMRI, conscious rat.
Setting [3] is: pre-treatment 5 mg/kg i.p., then apomorphine 20 μg/10 μl ICV, BOLD fMRI, conscious rat.

On to `CN1CCc2cccc3c2[C@H]1Cc1ccc(O)c(O)c1-3` [apomorphine], for which, under setting [1], the “activation of the anterior thalamic nuclei by apomorphine” value is reported as “activated”, the “activation of the dorsal striatum by apomorphine” value is listed as “activated” and the “activation of the pituitary gland by apomorphine” value was “activated”. The “activation of the mesocorticolimbic dopamine system (reward pathway) by apomorphine” value (apomorphine alone, 20 μg/10 μl ICV, BOLD fMRI, conscious rat) was “activated”. For the same compound, the “change in BOLD signal intensity in the pituitary gland” value (time course following ICV administration of apomorphine (FIG. 3A)) is reported as “increased”. For the same compound, the “change in BOLD signal intensity in the anterior thalamic nuclei” value (time course following ICV administration of apomorphine (FIG. 3B)) is on record as “increased”. Further, for the setting “time course following ICV administration of apomorphine (FIG. 3C)”, the “change in BOLD signal intensity in the dorsal striatum” value is “increased”.
Consider `CN(C)CCCN1c2ccccc2Sc2ccc(Cl)cc21` [chlorpromazine], for which, for the setting “antipsychotic pre-treatment i.p. (chlorpromazine, clozapine, olanzapine 5 mg/kg), then apomorphine 20 μg/10 μl ICV, BOLD fMRI, conscious rat”, the “neuronal/glial activity in the dorsal striatum” value is “reduced”. Besides, under setting [2], the “neuronal/glial activity in the anterior thalamic nuclei” value was “pronounced reduction” and the “neuronal/glial activity in the pituitary gland” value is “pronounced reduction”. Under setting [3], the “neuronal/glial activity in the CA1 region of the hippocampus” value is given as “significant reduction in neuronal/glial activity”, the “neuronal/glial activity in the CA3 region of the hippocampus” value was “significant reduction in neuronal/glial activity”, the “neuronal/glial activity in the dentate gyms region of the hippocampus” value is “significant reduction in neuronal/glial activity” and the “neuronal/glial activity in the subiculum region of the hippocampus” value is listed as “significant reduction in neuronal/glial activity”. Besides, under setting [3], the “neuronal/glial activity throughout the hippocampus” value is given as “selective reduction in activity”.
With `O=C(CCCN1CCC(O)(c2ccc(Cl)cc2)CC1)c1ccc(F)cc1` [haloperidol], under setting [2], the “neuronal/glial activity in the anterior thalamic nuclei” value is on record as “reducing apomorphine-induced neuronal/glial activity” and the “neuronal/glial activity in the pituitary gland” value is reported as “reducing apomorphine-induced neuronal/glial activity”.

Source of the values: US20110217240A1, “IMAGING NEUROLEPTIC COMPOUNDS” (priority 2008, published 2011).
